Measured values: patent publication US20030045580A1, “Ibuprofen containing active agent preparation” (priority 2000, published 2003)

Experiment: Hardness (radial breaking force) of 200 mg, 9 mm compacts from active ingredient preparation vs physical mixture
Assay type: physicochemical
Conditions: 200 mg compacts, diameter 9 mm
Protocol: The hardness of the round compacts means the radial breaking force.
Various compositions of the novel active ingredient preparation were compressed under various pressures using a type EKO press supplied by Korsch, Berlin, to give 200 mg compacts with a diameter of 9 mm. For comparison therewith, the physical mixtures (PM) of the same composition were compressed under analogous conditions, and the hardnesses of the produced compacts were compared. Physical mixtures mean the dry mixture of ibuprofen with the particular binder.
In contrast to the purely physical mixtures, the novel ibuprofen-containing active ingredient compositions result, even with low compressive forces, in compacts with hardnesses which are distinctly above the hardnesses of 25 N which are adequate for tablets.

CC(C)Cc1ccc(C(C)C(=O)O)cc1 (stereo not drawn) [0% (pure), 2-(4-isobutylphenyl)propionic acid]
Hardness with a compressive force of 4.7 to 5.3 kN (compressive force 4.7 to 5.3 kN): 11.0 N | Hardness with a compressive force of 9.7 to 10.9 kN (compressive force 9.7 to 10.9 kN): 10.8 N | Hardness with a compressive force of 20.1 to 21.1 kN (compressive force 20.1 to 21.1 kN): 20.1 N
